In patent US10251395B2, “Substituted furano-/thienocycloalkylamino-2-pyrimidine derivatives and use thereof for controlling undesired plant growth” (Bayer CropScience Aktiengesellschaft, priority 2015, dated 2019):

How the values were obtained:
Abutilon theophrasti [1] = assay: Pre-emergence herbicidal effect; format: in vivo; conditions: scored visually after 3 weeks
In short: (§1)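 After seeds are covered with sandy loam soil, the formulated compound is sprayed onto the soil surface as an aqueous suspension or emulsion containing 0.2% wetting agent. Three weeks later in the greenhouse, damage is rated by eye from 0% (like controls) to 100% (dead).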

Alopecurus myosuroides [2] = assay: Pre-emergence herbicidal effect; format: in vivo; conditions: scored visually after 3 weeks
In short: as §1

Amaranthus retroflexus [3] = assay: Pre-emergence herbicidal effect; format: in vivo; conditions: scored visually after 3 weeks
In short: as §1

Avena fatua [4] = assay: Pre-emergence herbicidal effect; format: in vivo; conditions: Dosage 320 g/ha, scored visually after 3 weeks
In short: as §1

Echinochloa crus-galli [5] = assay: Pre-emergence herbicidal effect; format: in vivo; conditions: scored visually after 3 weeks
In short: as §1

Ipomoea purpurea [6] = assay: Pre-emergence herbicidal effect; format: in vivo; conditions: Dosage 320 g/ha, scored visually after 3 weeks
In short: as §1

Lolium multiflorum [7] = assay: Pre-emergence herbicidal effect; format: in vivo; conditions: scored visually after 3 weeks
In short: as §1

Matricaria inodora [8] = assay: Pre-emergence herbicidal effect; format: in vivo; conditions: scored visually after 3 weeks
In short: as §1

Polygonum convolvulus [9] = assay: Pre-emergence herbicidal effect; format: in vivo; conditions: scored visually after 3 weeks
In short: as §1

Setaria viridis [10] = assay: Pre-emergence herbicidal effect; format: in vivo; conditions: scored visually after 3 weeks
In short: as §1

Stellaria media [11] = assay: Pre-emergence herbicidal effect; format: in vivo; conditions: scored visually after 3 weeks
In short: as §1

Veronica persica [12] = assay: Pre-emergence herbicidal effect; format: in vivo; conditions: scored visually after 3 weeks
In short: as §1

Viola tricolor [13] = assay: Pre-emergence herbicidal effect; format: in vivo; conditions: scored visually after 3 weeks
In short: as §1

Abutilon theophrasti [14] = assay: Post-emergence herbicidal effect; format: in vivo; conditions: assessed visually after about 3 weeks vs untreated controls
In short: (§2)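 Action, expressed in percent from 0 (like controls) to 100 (plants died), is read by eye about 3 weeks after foliar application. Applications use formulated product in water at 600–800 L/ha on one-leaf-stage plants sown in sandy loam.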

Alopecurus myosuroides [15] = assay: Post-emergence herbicidal effect; format: in vivo; conditions: assessed visually after about 3 weeks vs untreated controls
In short: as §2

Amaranthus retroflexus [16] = assay: Post-emergence herbicidal effect; format: in vivo; conditions: assessed visually after about 3 weeks vs untreated controls
In short: as §2

Avena fatua [17] = assay: Post-emergence herbicidal effect; format: in vivo; conditions: assessed visually after about 3 weeks vs untreated controls
In short: as §2

Echinochloa crus-galli [18] = assay: Post-emergence herbicidal effect; format: in vivo; conditions: assessed visually after about 3 weeks vs untreated controls
In short: as §2

Ipomoea purpurea [19] = assay: Post-emergence herbicidal effect; format: in vivo; conditions: assessed visually after about 3 weeks vs untreated controls
In short: as §2

Lolium multiflorum [20] = assay: Post-emergence herbicidal effect; format: in vivo; conditions: assessed visually after about 3 weeks vs untreated controls
In short: as §2

Matricaria inodora [21] = assay: Post-emergence herbicidal effect; format: in vivo; conditions: assessed visually after about 3 weeks vs untreated controls
In short: as §2

Polygonum convolvulus [22] = assay: Post-emergence herbicidal effect; format: in vivo; conditions: assessed visually after about 3 weeks vs untreated controls
In short: as §2

Setaria viridis [23] = assay: Post-emergence herbicidal effect; format: in vivo; conditions: assessed visually after about 3 weeks vs untreated controls
In short: as §2

Stellaria media [24] = assay: Post-emergence herbicidal effect; format: in vivo; conditions: assessed visually after about 3 weeks vs untreated controls
In short: as §2

Veronica persica [25] = assay: Post-emergence herbicidal effect; format: in vivo; conditions: 320 g/ha, assessed visually after about 3 weeks vs untreated controls
In short: as §2

Viola tricolor [26] = assay: Post-emergence herbicidal effect; format: in vivo; conditions: assessed visually after about 3 weeks vs untreated controls
In short: as §2

logP (HCOOH) = format: physicochemical; conditions: HCOOH
Excerpt: Table 2 (physicochemical characterization of selected synthesis examples)

Cc1cc2c(s1)CCCC2Nc1ncc(C(F)(F)F)c(N)n1 (racemic) [compound 257]
ABUTH pre-emergence efficacy (herbicidal activity) (Abutilon theophrasti [1]; Dosage 80 g/ha): 70% | ABUTH pre-emergence efficacy (herbicidal activity) (Abutilon theophrasti [1]; Dosage 320 g/ha): 100% | ALOMY pre-emergence efficacy (herbicidal activity) (Alopecurus myosuroides [2]; Dosage 80 g/ha): 100% | ALOMY pre-emergence efficacy (herbicidal activity) (Alopecurus myosuroides [2]; Dosage 320 g/ha): 100% | AMARE pre-emergence efficacy (herbicidal activity) (Amaranthus retroflexus [3]; Dosage 80 g/ha): 100% | AMARE pre-emergence efficacy (herbicidal activity) (Amaranthus retroflexus [3]; Dosage 320 g/ha): 100% | AVEFA pre-emergence efficacy (herbicidal activity) (Avena fatua [4]): 100% | ECHCG pre-emergence efficacy (herbicidal activity) (Echinochloa crus-galli [5]; Dosage 80 g/ha): 100% | ECHCG pre-emergence efficacy (herbicidal activity) (Echinochloa crus-galli [5]; Dosage 320 g/ha): 100% | PHBPU pre-emergence efficacy (herbicidal activity) (Ipomoea purpurea [6]): 100% | LOLMU pre-emergence efficacy (herbicidal activity) (Lolium multiflorum [7]; Dosage 80 g/ha): 100% | LOLMU pre-emergence efficacy (herbicidal activity) (Lolium multiflorum [7]; Dosage 320 g/ha): 100% | MATIN pre-emergence efficacy (herbicidal activity) (Matricaria inodora [8]; Dosage 80 g/ha): 100% | MATIN pre-emergence efficacy (herbicidal activity) (Matricaria inodora [8]; Dosage 320 g/ha): 100% | POLCO pre-emergence efficacy (herbicidal activity) (Polygonum convolvulus [9]; Dosage 80 g/ha): 100% | POLCO pre-emergence efficacy (herbicidal activity) (Polygonum convolvulus [9]; Dosage 320 g/ha): 100% | SETVI pre-emergence efficacy (herbicidal activity) (Setaria viridis [10]; Dosage 80 g/ha): 100% | SETVI pre-emergence efficacy (herbicidal activity) (Setaria viridis [10]; Dosage 320 g/ha): 100% | STEME pre-emergence efficacy (herbicidal activity) (Stellaria media [11]; Dosage 80 g/ha): 100% | STEME pre-emergence efficacy (herbicidal activity) (Stellaria media [11]; Dosage 320 g/ha): 100% | VERPE pre-emergence efficacy (herbicidal activity) (Veronica persica [12]; Dosage 80 g/ha): 100% | VERPE pre-emergence efficacy (herbicidal activity) (Veronica persica [12]; Dosage 320 g/ha): 100% | VIOTR pre-emergence efficacy (herbicidal activity) (Viola tricolor [13]; Dosage 80 g/ha): 100% | VIOTR pre-emergence efficacy (herbicidal activity) (Viola tricolor [13]; Dosage 320 g/ha): 100% | post-emergence efficacy ABUTH (Abutilon theophrasti [14]; 80 g/ha): 90% | post-emergence efficacy ABUTH (Abutilon theophrasti [14]; 320 g/ha): 90% | post-emergence efficacy ALOMY (Alopecurus myosuroides [15]; 80 g/ha): 70% | post-emergence efficacy ALOMY (Alopecurus myosuroides [15]; 320 g/ha): 90% | post-emergence efficacy AMARE (Amaranthus retroflexus [16]; 80 g/ha): 80% | post-emergence efficacy AMARE (Amaranthus retroflexus [16]; 320 g/ha): 90% | post-emergence efficacy AVEFA (Avena fatua [17]; 80 g/ha): 70% | post-emergence efficacy AVEFA (Avena fatua [17]; 320 g/ha): 100% | post-emergence efficacy ECHCG (Echinochloa crus-galli [18]; 80 g/ha): 90% | post-emergence efficacy ECHCG (Echinochloa crus-galli [18]; 320 g/ha): 100% | post-emergence efficacy PHBPU (Ipomoea purpurea [19]; 80 g/ha): 80% | post-emergence efficacy PHBPU (Ipomoea purpurea [19]; 320 g/ha): 90% | post-emergence efficacy LOLMU (Lolium multiflorum [20]; 80 g/ha): 100% | post-emergence efficacy LOLMU (Lolium multiflorum [20]; 320 g/ha): 100% | post-emergence efficacy MATIN (Matricaria inodora [21]; 80 g/ha): 90% | post-emergence efficacy MATIN (Matricaria inodora [21]; 320 g/ha): 90% | post-emergence efficacy POLCO (Polygonum convolvulus [22]; 80 g/ha): 60% | post-emergence efficacy POLCO (Polygonum convolvulus [22]; 320 g/ha): 80% | post-emergence efficacy SETVI (Setaria viridis [23]; 80 g/ha): 90% | post-emergence efficacy SETVI (Setaria viridis [23]; 320 g/ha): 90% | post-emergence efficacy STEME (Stellaria media [24]; 80 g/ha): 80% | post-emergence efficacy STEME (Stellaria media [24]; 320 g/ha): 100% | post-emergence efficacy VERPE (Veronica persica [25]): 100% | post-emergence efficacy VIOTR (Viola tricolor [26]; 80 g/ha): 90% | post-emergence efficacy VIOTR (Viola tricolor [26]; 320 g/ha): 90% | logP (HCOOH) (logP (HCOOH)): oily; logP (HCOOH): 2.02; 1H NMR (CDCl3, 400 MHZ, δ in ppm): 2.10 (m, 1H, 1H of
